Read-outs that look alike come from different tables or passages of the source.
What was measured:
[1] = test system: Bemisia tabaci; experiment: Confirmation of efficacy against Bemisia tabaci (sprayed detached tomato leaves, insect mortality); type: in vivo; details: 72 h, B type adults, after three days, 25° C., humidity 65%, read-out: mortality rate
Source text: Detached tomato leaves were sprayed with the resulting chemical solution and air-dried. Then, the leaves were set on flasks in a manner that the surface of the leaves face upward. […] The test was repeated twice.

[2] = test system: Pseudaletia separate; experiment: Confirmation of efficacy against Pseudaletia separate (maize leaf soak, insect mortality); type: in vivo; details: 120 h, maize leaves soaked 30 seconds, second-instar larvae, after five days, 25° C., humidity 65%, read-out: mortality rate
Source text: Maize leaves were soaked in the resulting chemical solution for 30 seconds and air-dried. Then the leaves were put on Petri dishes lined with a filter paper, followed by inoculating 5 second-instar larvae. […] Mortality was investigated after five days, and the insect mortality rate was obtained. The test was repeated twice.

[3] = test system: Aphis gossypii; experiment: Confirmation of efficacy against Aphis gossypii (cucumber seedlings, insect mortality); type: in vivo; details: 120 h, read-out: mortality rate
Source text: Mortality was investigated after five days, and the insect mortality rate was obtained.
The test was repeated twice.

[4] = test system: Tetranychus urticae with organophosphate resistance; experiment: Confirmation of efficacy against Tetranychus urticae (bean seedlings, mortality); details: for mortality rate: 125 ppm, sprayed bean seedlings, female adults with organophosphate resistance, after three days, 25° C., humidity 65%
[5] = 125 ppm, cucumber seedlings parasitized with offspring, after five days, 25° C., humidity 65%

Row | SMILES | mortality at 125 ppm [1] | mortality at 125 ppm [2] | mortality rate [4] | further results
1 | C(/Sc1ccccc1)=C1/CCS/C1=N\c1ccccc1 [Compound 1a-1, (Z)—N-((E)-3-(phenylthiomethylene)dihydrothiophen-2(3H)-ylidene)aniline] | 100% | 100% |  | 
2 | C(/Sc1ccccc1)=C1/CCCS/C1=N\c1ccccc1 [Compound 2a-1, (Z)—N-((E)-3-(phenylthiomethylene)tetrahydro-2H-thiopyran-2-ylidene) aniline] | 100% | 100% |  | mortality at 125 ppm [3, 5]: 100%
3 | Cc1ccc(/N=C2\SCCC\C2=C/Sc2ccc(F)cc2)cc1 [Compound 2a-78] |  |  | 100% | 
4 | Cc1ccc(/N=C2\OC(C)CC\C2=C/Sc2ccccc2)cc1 (centres unmarked) [Compound 2a-83] |  |  | 100% | 
5 | CCCC1CCC(=C\Sc2ccccc2)/C(=N/c2ccc(C)cc2)O1 (centres unmarked) [Compound 2a-84] |  |  | 100% | 
6 | Cc1ccc(/N=C2\OC(C)(C)CC\C2=C/Sc2ccccc2)cc1 [Compound 2a-85] |  |  | 100% | 
7 | Cc1ccc(/N=C2\OC(c3ccccc3)CC\C2=C/Sc2ccccc2)cc1 (centres unmarked) [Compound 2a-86] |  |  | 100% | 
8 | Cc1ccc(/N=C2\OC3CCCCC3C\C2=C/Sc2ccccc2)cc1 (centres unmarked) [Compound 5a-1] | 100% | 100% |  | mortality at 125 ppm [3, 5]: 100%
9 | Cc1ccc(/N=C2\OCc3ccccc3\C2=C/Sc2ccccc2)cc1 [Compound 5a-2] |  | 100% |  | 
10 | Cc1ccc(/N=C2\OC3CCCCC3\C2=C/Sc2ccccc2)cc1 (centres unmarked) [Compound 5a-3] | 100% | 100% |  | 
11 | Clc1ccc(/N=C2\SC3C=CCCC3C\C2=C/Sc2ccccc2)cc1 (centres unmarked) [Compound 5a-5, (4-chloro-phenyl)-{3-[1-phenylsulfanyl-(E)-methylidene]-3,4,4a,5,6,8a-hexahydro-thiochromene-(2Z)-ylidene}-amine] | 100% | 100% |  | mortality at 125 ppm ([4]; Tetranychus urticae, 72 h, read-out: mortality rate): 100%; mortality at 125 ppm [3]: 100%

Reference: US8222430B2, “1-heterodiene derivative and harmful organism control agent” (priority 2008, dated 2012)
